Test results taken from US20210220301A1, “Pharmaceutical or Nutritional Combination Comprising Beta-Hydroxy-Betamethylbutyrate” (Abbott Laboratories, priority 2016, published 2021).

Key:
lean body mass = conditions: humans; Deutz et al., Clin Nutr. 2013; cited from earlier work
[1] = tested on: rats subjected to dexamethasone-induced muscle loss; experiment: Dexamethasone-induced muscle loss in rats: soleus muscle mass after 21 days; assay type: in vivo, Sprague-Dawley rats; conditions: 200 mg/kg/day white curcumin alone, co-administered with 0.1 mg/kg/day dexamethasone i.p., day 21, FIG. 1, t-test P<0.05
Description: A study was carried out to investigate the effect of a composition comprising HMB and white curcumin (THC) in a well-established animal model for human muscle loss (β-Hydroxy-β-methylbutyrate (HMB) normalizes dexamethasone-induced autophagy-lysosomal pathway in skeletal muscle. Giron M D, Vilchez J D, Shreeram S, Salto R, Manzano M, Cabrera E, Campos N, Edens N K, Rueda R, Lopez-Pedrosa J M. PLoS One. 2015 Feb. 6; 10(2):e0117520. doi: 10.1371/journal.pone.0117520. eCollection 2015).
Experimental design—Male Sprague-Dawley rats (8-10 weeks old) (n=42) having a body weight of 270-310 g were randomly assigned to seven experimental groups (six rats per group). Groups 1-6 were administered 0.1 mg/kg/day dexamethasone (a synthetic glucocorticoid) by intraperitoneal injection for 21 days to induce muscle loss. The dexamethasone was administered at 2 mL/kg of 1.75 mg dexamethasone in 35 mL saline. Group 7 (a sham control) was administered saline without the dexamethasone.
Group 1 (a pathological control) was administered the 0.1 mg/kg/day dexamethasone alone. […]
The body weight of each rat was measured daily. On day 21 the soleus and rectus femoris muscles from each rat were collected and weighed and the lean mass of each rat was recorded. The fore limb and hind limb grip strengths were also measured. […]

Row | SMILES | minimum dose of HMB at which benefits (preserving lean body mass and muscle strength) occur (lean body mass) [mg/kg/day] | soleus muscle mass relative to the pathological control [1]
1 | CC(C)(O)CC(=O)O [HMB, 3-hydroxy-3-methylbutanoic acid] | 50 | –
2 | COc1cc(CCC(=O)CC(=O)CCc2ccc(O)c(OC)c2)ccc1O [white curcumin, 1,7-bis(4-hydroxy-3-methoxyphenyl)heptane-3,5-dione] | – | did not have a significant effect
